Laboratory results published in patent US4267112A, “Antibiotic U-58,431” (The Upjohn Company, priority 1979, dated 1981).

What was measured:
[1] = test system: Diplococcus pneumoniae UC 41; test: antibacterial broth MIC assay; assay type: cell-based; conditions: Brain Heart Infusion Broth, 42 hours
Method: (§1) The antibacterial assay is a standard microbiological broth assay. The MIC is determined by standard methods using two-fold dilutions of the antibiotic in Brian Heart Infusion Broth (Difco Lab., Detroit, Michigan). The inocula are overnight cultures of the test organisms, diluted so that the final population contains approximately 10^5 cells/ml. The tubes are incubated at 28° to 37° C. for 42 hours. The lowest antibiotic concentration which allows no growth=MIC or minimum inhibitory concentration.

Escherichia coli UC 45 = test: antibacterial broth MIC assay; assay type: cell-based; conditions: Brain Heart Infusion Broth, 42 hours
Method: as §1

[2] = test system: Klebsiella pneumoniae UC 58; test: antibacterial broth MIC assay; assay type: cell-based; conditions: Brain Heart Infusion Broth, 42 hours
Method: as §1

Proteus vulgaris UC 93 = test: antibacterial broth MIC assay; assay type: cell-based; conditions: Brain Heart Infusion Broth, 42 hours
Method: as §1

[3] = test system: Pseudomonas aeruginosa UC 95; test: antibacterial broth MIC assay; assay type: cell-based; conditions: Brain Heart Infusion Broth, 42 hours
Method: as §1

[4] = test system: Salmonella schottmuelleri UC 126; test: antibacterial broth MIC assay; assay type: cell-based; conditions: Brain Heart Infusion Broth, 42 hours
Method: as §1

[5] = test system: Staphylococcus aureus 284 UC 76; test: antibacterial broth MIC assay; assay type: cell-based; conditions: Brain Heart Infusion Broth, 42 hours
Method: as §1

[6] = test system: Staphylococcus aureus UC 570; test: antibacterial broth MIC assay; assay type: cell-based; conditions: Brain Heart Infusion Broth, 42 hours
Method: as §1

[7] = test system: Staphylococcus aureus UC 746; test: antibacterial broth MIC assay; assay type: cell-based; conditions: Brain Heart Infusion Broth, 42 hours
Method: as §1

[8] = test system: Streptococcus faecalis UC 694; test: antibacterial broth MIC assay; assay type: cell-based; conditions: Brain Heart Infusion Broth, 42 hours
Method: as §1

[9] = test system: Streptococcus hemolyticus UC 152; test: antibacterial broth MIC assay; assay type: cell-based; conditions: Brain Heart Infusion Broth, 42 hours
Method: as §1

[10] = test system: Blastomyces dermatidis UC 1466; test: antifungal agar dilution test; assay type: cell-based; set-up: key: -: inhibition; +: no inhibition; conditions: 28° C., 72 hours
Method: (§2) The antifungal spectrum for antibiotic U-58,431 was conducted on a standard agar […] assay. The results are as follows: An agar dilution method is used. 100 mg amounts of material is solubilized in 1 ml of dimethylformamide (DMF) and diluted to 10 ml with mycophil Broth (BBL labs.) unless completely soluble in water. The material to be tested is incorporated in melted (48° C.) mycophil Agar at concentrations of 1000, 100, 10 and 1 mcg/ml. Fifteen ml of agar is pipetted into a petri dish. After solidification, the surface is streaked with agar spore suspensions of human fungal pathogens. The suspensions are made by adding 10 ml sterile distilled water to agar […] of the test organisms. The slant surface is scraped with a sterile inoculating needle, and 0.5 ml of this suspension is added to 9.5 ml melted (48° C.) mycophil Agar in a stamp streak well. (Each stamp streak base has 6 wells.) The streaked plates are incubated at 28° C. for 72 hours at which time results are recorded. Readings are by visual observation.

Candida albicans UC 7163 = test: antifungal agar dilution test; assay type: cell-based; set-up: key: -: inhibition; +: no inhibition; conditions: 28° C., 72 hours
Method: as §2

Candida albicans UC 7164 = test: antifungal agar dilution test; assay type: cell-based; set-up: key: -: inhibition; +: no inhibition; conditions: 28° C., 72 hours
Method: as §2

[11] = test system: Cryptococcus neoformans UC 1139; test: antifungal agar dilution test; assay type: cell-based; set-up: key: -: inhibition; +: no inhibition; conditions: 28° C., 72 hours
Method: as §2

[12] = test system: Cryptococcus neoformans UC 4869; test: antifungal agar dilution test; assay type: cell-based; set-up: key: -: inhibition; +: no inhibition; conditions: 28° C., 72 hours
Method: as §2

Geotrichum sp. UC 1207 = test: antifungal agar dilution test; assay type: cell-based; set-up: key: -: inhibition; +: no inhibition; conditions: 28° C., 72 hours
Method: as §2

[13] = test system: Hormodendrum compactum UC 1222; test: antifungal agar dilution test; assay type: cell-based; set-up: key: -: inhibition; +: no inhibition; conditions: 28° C., 72 hours
Method: as §2

[14] = test system: Nocardia asteroides UC 2052; test: antifungal agar dilution test; assay type: cell-based; set-up: key: -: inhibition; +: no inhibition; conditions: 28° C., 72 hours
Method: as §2

[15] = test system: Sporotrichum schenckii UC 1364; test: antifungal agar dilution test; assay type: cell-based; set-up: key: -: inhibition; +: no inhibition; conditions: 28° C., 72 hours
Method: as §2

[16] = test system: Trichophyton asteroides UC 4775; test: antifungal agar dilution test; assay type: cell-based; set-up: key: -: inhibition; +: no inhibition; conditions: 28° C., 72 hours
Method: as §2

[17] = test system: Trichophyton mentagrophytes UC 4797; test: antifungal agar dilution test; assay type: cell-based; set-up: key: -: inhibition; +: no inhibition; conditions: 28° C., 72 hours
Method: as §2

[18] = test system: Trichophyton mentagrophytes UC 4860; test: antifungal agar dilution test; assay type: cell-based; set-up: key: -: inhibition; +: no inhibition; conditions: 28° C., 72 hours
Method: as §2

[19] = test system: Trichophyton rubrum UC 1458; test: antifungal agar dilution test; assay type: cell-based; set-up: key: -: inhibition; +: no inhibition; conditions: 28° C., 72 hours
Method: as §2

[20] = test system: Trichophyton violaceum UC 1459; test: antifungal agar dilution test; assay type: cell-based; set-up: key: -: inhibition; +: no inhibition; conditions: 28° C., 72 hours
Method: as §2

solubilities = assay type: physicochemical
[21] = test system: various Gram-positive and Gram-negative bacteria; test: antibacterial activity (general statement); assay type: cell-based
Method: as §1

fungi = test: antifungal activity (general statement); assay type: cell-based
Method: An agar dilution method is used. 100 mg amounts of material is solubilized in 1 ml of dimethylformamide (DMF) and diluted to 10 ml with mycophil Broth (BBL labs.) unless completely soluble in water. The material to be tested is incorporated in melted (48° C.) mycophil Agar at concentrations of 1000, 100, 10 and 1 mcg/ml. Fifteen ml of agar is pipetted into a petri dish. After solidification, the surface is streaked with agar spore suspensions of human fungal pathogens. The suspensions are made by adding 10 ml sterile distilled water to agar slants of the test organisms. The slant surface is scraped with a sterile inoculating needle, and 0.5 ml of this suspension is added to 9.5 ml melted (48° C.) mycophil Agar in a stamp streak well. (Each stamp streak base has 6 wells.)
The streaked plates are incubated at 28° C. for 72 hours at which time results are recorded. Readings are by visual observation.

P. vulgaris = test: activity against P. vulgaris (general statement); assay type: cell-based
Method: as §1

C[C@H]1O[C@@H]2C3=C(C(=O)C(=N)C(C(N)=O)=C3O)[C@@]1(O)C[C@H]2O [U-58,431]
Minimum Inhibitory Concentration [1]: 1.0 µg/mL
Minimum Inhibitory Concentration (Escherichia coli UC 45): 250 µg/mL
Minimum Inhibitory Concentration [2]: 125 µg/mL
Minimum Inhibitory Concentration (Proteus vulgaris UC 93): 250 µg/mL
Minimum Inhibitory Concentration [3]: 125 µg/mL
Minimum Inhibitory Concentration [4]: 62.5 µg/mL
Minimum Inhibitory Concentration [5]: 125 µg/mL
Minimum Inhibitory Concentration [6]: 125 µg/mL
Minimum Inhibitory Concentration [7]: 125 µg/mL
Minimum Inhibitory Concentration [8]: 250 µg/mL
Minimum Inhibitory Concentration [9]: 125 µg/mL
inhibition at indicated concentration ([10]; 1 mcg/ml): +
inhibition at indicated concentration ([10]; 10 mcg/ml): +
inhibition at indicated concentration ([10]; 100 mcg/ml): +
inhibition at indicated concentration ([10]; 1000 mcg/ml): +
inhibition at indicated concentration (Candida albicans UC 7163; 1 mcg/ml): +
inhibition at indicated concentration (Candida albicans UC 7163; 10 mcg/ml): +
inhibition at indicated concentration (Candida albicans UC 7163; 100 mcg/ml): +
inhibition at indicated concentration (Candida albicans UC 7163; 1000 mcg/ml): +
inhibition at indicated concentration (Candida albicans UC 7164; 1 mcg/ml): +
inhibition at indicated concentration (Candida albicans UC 7164; 10 mcg/ml): +
inhibition at indicated concentration (Candida albicans UC 7164; 100 mcg/ml): +
inhibition at indicated concentration (Candida albicans UC 7164; 1000 mcg/ml): +
inhibition at indicated concentration ([11]; 1 mcg/ml): +
inhibition at indicated concentration ([11]; 10 mcg/ml): +
inhibition at indicated concentration ([11]; 100 mcg/ml): +
inhibition at indicated concentration ([11]; 1000 mcg/ml): +
inhibition at indicated concentration ([12]; 1 mcg/ml): +
inhibition at indicated concentration ([12]; 10 mcg/ml): +
inhibition at indicated concentration ([12]; 100 mcg/ml): +
inhibition at indicated concentration ([12]; 1000 mcg/ml): +
inhibition at indicated concentration (Geotrichum sp. UC 1207; 1 mcg/ml): +
inhibition at indicated concentration (Geotrichum sp. UC 1207; 10 mcg/ml): +
inhibition at indicated concentration (Geotrichum sp. UC 1207; 100 mcg/ml): +
inhibition at indicated concentration (Geotrichum sp. UC 1207; 1000 mcg/ml): +
inhibition at indicated concentration ([13]; 1 mcg/ml): +
inhibition at indicated concentration ([13]; 10 mcg/ml): +
inhibition at indicated concentration ([13]; 100 mcg/ml): +
inhibition at indicated concentration ([13]; 1000 mcg/ml): +
inhibition at indicated concentration ([14]; 1 mcg/ml): +
inhibition at indicated concentration ([14]; 10 mcg/ml): +
inhibition at indicated concentration ([14]; 100 mcg/ml): +
inhibition at indicated concentration ([14]; 1000 mcg/ml): -
inhibition at indicated concentration ([15]; 1 mcg/ml): +
inhibition at indicated concentration ([15]; 10 mcg/ml): +
inhibition at indicated concentration ([15]; 100 mcg/ml): +
inhibition at indicated concentration ([15]; 1000 mcg/ml): +
inhibition at indicated concentration ([16]; 1 mcg/ml): +
inhibition at indicated concentration ([16]; 10 mcg/ml): +
inhibition at indicated concentration ([16]; 100 mcg/ml): +
inhibition at indicated concentration ([16]; 1000 mcg/ml): +
inhibition at indicated concentration ([17]; 1 mcg/ml): +
inhibition at indicated concentration ([17]; 10 mcg/ml): +
inhibition at indicated concentration ([17]; 100 mcg/ml): +
inhibition at indicated concentration ([17]; 1000 mcg/ml): -
inhibition at indicated concentration ([18]; 1 mcg/ml): +
inhibition at indicated concentration ([18]; 10 mcg/ml): +
inhibition at indicated concentration ([18]; 100 mcg/ml): +
inhibition at indicated concentration ([18]; 1000 mcg/ml): +
inhibition at indicated concentration ([19]; 1 mcg/ml): +
inhibition at indicated concentration ([19]; 10 mcg/ml): +
inhibition at indicated concentration ([19]; 100 mcg/ml): +
inhibition at indicated concentration ([19]; 1000 mcg/ml): -
inhibition at indicated concentration ([20]; 1 mcg/ml): +
inhibition at indicated concentration ([20]; 10 mcg/ml): +
inhibition at indicated concentration ([20]; 100 mcg/ml): +
inhibition at indicated concentration ([20]; 1000 mcg/ml): +
solubility (solubilities; chloroform): slightly soluble
solubility (solubilities; cold methylene chloride): slightly soluble
solubility (solubilities; ethanol): soluble
solubility (solubilities; methanol): soluble
solubility (solubilities; water): soluble
activity against Gram-positive and Gram-negative bacteria [21]: active
activity against fungi (fungi): active
activity against P. vulgaris (P. vulgaris): active
